Assay results reported in PMC9939733 (The Journal of Biological Chemistry, 2023).
Substitutions are numbered along the chain they refer to. Values joined by “and” are separate entries in the source; they are usually repeats but may differ in a detail not shown here. Equal entries are not always repeated.

Experiments:
Assay type in all cases: biochemical
[1] = target: T1, WT IDH2 (Homo sapiens, UniProt P48735); assay: Absorbance assay, substrate activity in the absence of DL-isocitrate
T1 construct: made in house; host or cells: Sf21 insect cells (cell pellets prepared at Evotec)
T1 sequence (P48735 40-452): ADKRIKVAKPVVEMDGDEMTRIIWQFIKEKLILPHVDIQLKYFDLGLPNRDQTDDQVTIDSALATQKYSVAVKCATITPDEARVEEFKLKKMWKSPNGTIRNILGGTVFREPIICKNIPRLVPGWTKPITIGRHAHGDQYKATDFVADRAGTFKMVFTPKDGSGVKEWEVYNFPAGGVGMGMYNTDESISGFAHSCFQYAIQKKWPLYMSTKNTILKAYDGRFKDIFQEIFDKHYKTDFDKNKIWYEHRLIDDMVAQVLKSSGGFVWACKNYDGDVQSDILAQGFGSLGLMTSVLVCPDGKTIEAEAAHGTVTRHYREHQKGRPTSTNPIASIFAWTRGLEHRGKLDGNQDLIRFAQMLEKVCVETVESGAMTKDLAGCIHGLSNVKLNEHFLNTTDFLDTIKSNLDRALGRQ
Procedure: (§1) Compounds were dispensed using a CyBio SDW-CW CyBi-Well Simultaneous Pipettor and assay started using a ThermoFisher Multidrop Combi reagent dispenser.
(§2) Reactions were performed as technical quadruplicates.

[2] = target: T2, WT IDH1 (Homo sapiens, UniProt O75874); assay: as above
T2 construct: made in house; host or cells: Escherichia coli BL21(DE3) pLyS
Procedure: as §1, §2

[3] = target: T1, WT IDH2; assay: Absorbance assay, WT activity in the presence of equimolar DL-isocitrate (inhibition)
Procedure: as §1, §2

[4] = target: T2, WT IDH1; assay: as above
Procedure: as §1, §2

[5] = target: T3, R172K IDH2 (Homo sapiens, UniProt P48735, R172K); assay: Absorbance assay, variant activity in the presence of equimolar 2OG (inhibition screen)
T3 construct: made in house; host or cells: Sf21 insect cells (cell pellets prepared at Evotec)
T3 sequence (P48735 40-452 R172K): T1 sequence (P48735 40-452) with R133K
Procedure: as §1, §2

[6] = target: T4, R140Q IDH2 (Homo sapiens, UniProt P48735, R140Q); assay: as above
T4 construct: made in house; host or cells: Sf21 insect cells (cell pellets prepared at Evotec)
T4 sequence (P48735 40-452 R140Q): T1 sequence (P48735 40-452) with R101Q
Procedure: as §1, §2

[7] = target: T3, R172K IDH2; assay: Absorbance assay (NADPH consumption), substrate turnover in the absence of 2OG
Procedure: as §1, §2

[8] = target: T4, R140Q IDH2; assay: as above
Procedure: as §1, §2

[9] = target: T5, R132H IDH1 (Homo sapiens, UniProt O75874, R132H); assay: as above; set-up: made in house; host or cells: Escherichia coli BL21(DE3) pLyS
Procedure: as §1, §2

[10] = target: T5, R132H IDH1; assay: Absorbance assay, variant activity in the presence of equimolar 2OG (inhibition screen); set-up: made in house; host or cells: Escherichia coli BL21(DE3) pLyS
Procedure: as §1, §2

[11] = no DL-isocitrate, […] test compound, 75 μM NADP+, 2.0 nM WT IDH2, compared to DL-isocitrate
[12] = no DL-isocitrate, […] test compound, 75 μM NADP+, 2.0 nM WT IDH1, compared to DL-isocitrate
[13] = […] isocitrate and […] test compound, 75 μM NADP+, 2.0 nM WT IDH2
[14] = […] isocitrate and […] test compound, 75 μM NADP+, 2.0 nM WT IDH1
[15] = 1.0 mM 2OG and 1.0 mM test compound, 0.03 μM R172K IDH2, 50 μM NADPH
[16] = 6.0 mM 2OG and 6.0 mM test compound, 0.03 μM R140Q IDH2, 50 μM NADPH
[17] = no 2OG, 1.0 mM test compound, 0.03 μM R172K IDH2, 50 μM NADPH, 2OG = 100
[18] = no 2OG, 6.0 mM test compound, 0.03 μM R140Q IDH2, 50 μM NADPH, 2OG = 100
[19] = no 2OG, […] test compound, 0.03 μM R132H IDH1, 50 μM NADPH, 2OG = 100
[20] = […] 2OG and […] test compound, 0.03 μM R132H IDH1, 50 μM NADPH

T2 sequence (O75874 whole entry): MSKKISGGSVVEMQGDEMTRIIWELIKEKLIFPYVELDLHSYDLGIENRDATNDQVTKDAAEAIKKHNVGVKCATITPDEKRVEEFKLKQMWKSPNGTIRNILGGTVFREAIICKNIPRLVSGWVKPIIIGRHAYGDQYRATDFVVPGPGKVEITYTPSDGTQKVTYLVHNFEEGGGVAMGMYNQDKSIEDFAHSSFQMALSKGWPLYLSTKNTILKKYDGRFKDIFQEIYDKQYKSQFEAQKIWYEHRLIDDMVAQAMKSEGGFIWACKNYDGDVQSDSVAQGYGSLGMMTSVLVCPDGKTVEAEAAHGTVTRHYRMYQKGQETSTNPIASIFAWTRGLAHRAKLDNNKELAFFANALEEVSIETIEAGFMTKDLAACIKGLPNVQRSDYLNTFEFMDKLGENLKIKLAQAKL
T5 sequence (O75874 whole entry R132H): as the sequence (O75874 whole entry) above, with R132H counted along it

Row | Compound | activity [%] (%-substrate conversion after 20 min incubation) [1, 11] | activity [%] (%-substrate conversion after 20 min incubation) [2, 12] | activity [%] (%-substrate conversion after 20 min incubation) [3, 13] | activity [%] (%-substrate conversion after 20 min incubation) [4, 14] | activity [%] (%-substrate conversion after 20 min incubation) [5, 15] | activity [%] (%-substrate conversion after 20 min incubation) [6, 16] | activity [%] (%-substrate conversion after 20 min incubation) [7, 17] | activity [%] (%-substrate conversion after 20 min incubation) [8, 18] | activity [%] (%-substrate conversion after 20 min incubation) [9, 19] | activity [%] (%-substrate conversion after 20 min incubation) [10, 20] | activity [%] (%-substrate conversion after 20 min incubation) [1] | activity [%] (%-substrate conversion after 20 min incubation) [2] | activity [%] (%-substrate conversion after 20 min incubation) [3] | activity [%] (%-substrate conversion after 20 min incubation) [4] | activity [%] (%-substrate conversion after 20 min incubation) [5] | activity [%] (%-substrate conversion after 20 min incubation) [6] | activity [%] (%-substrate conversion after 20 min incubation) [7] | activity [%] (%-substrate conversion after 20 min incubation) [8] | activity [%] (%-substrate conversion after 20 min incubation) [9] | activity [%] (%-substrate conversion after 20 min incubation) [10]
1 | CC(CC(=O)O)C(=O)O (racemic) [DL-2-methylsuccinic acid] | < 10% | < 10% | 99 ± 3% | 103 ± 2% | 102 ± 9% | 115 ± 12% | < 10% | < 10% | < 10% | 104 ± 3% |  |  |  |  |  |  |  |  |  | 
2 | O=C(O)CC(Cc1ccccc1)C(=O)O (racemic) [DL-benzylsuccinic acid] | < 10% | < 10% | 101 ± 3% | 103 ± 4% | 98 ± 3% | 123 ± 5% | < 10% | < 10% | < 10% | 93 ± 3% |  |  |  |  |  |  |  |  |  | 
3 | O=C1CC(C(=O)O)C(C(=O)O)O1 (racemic) [DL-isocitric acid lactone] |  |  |  |  |  |  |  |  |  |  | ~10% and 11 ± 1% | ~10% and 12 ± 4% | 106 ± 2% | 105 ± 2% | 95 ± 3% | 118 ± 18% | < 10% | < 10% | < 10% | 99 ± 2%
4 | CC(O)C(=O)O (racemic) [DL-lactic acid] | < 10% | < 10% | 95 ± 5% | 105 ± 6% | 100 ± 8% | 115 ± 9% | < 10% | < 10% | < 10% | 104 ± 8% |  |  |  |  |  |  |  |  |  | 
5 | CSCCC(=O)C(=O)O [4-methylthio-2-oxobutyric acid] |  |  | 98 ± 3% | 102 ± 2% | 96 ± 1% | 99 ± 5% | < 10% | < 10% | < 10% | 97 ± 1% |  |  |  |  |  |  |  |  |  | 
6 | O=C(O)CC(O)(CC(=O)O)C(=O)O [DL-citric acid] |  |  |  |  |  |  |  |  |  |  |  |  | 101 ± 3% | 103 ± 3% | 94 ± 4% | 122 ± 14% | < 10% | < 10% | < 10% | 115 ± 25%
7 | N[C@@H](CCCC(=O)O)C(=O)O [L-2-aminoadipic acid] |  |  | 101 ± 5% | 108 ± 4% | 104 ± 1% | 82 ± 4% | < 10% | < 10% | < 10% | 104 ± 7% |  |  |  |  |  |  |  |  |  | 
8 | COC(=O)CCC(=O)C(=O)OC [dimethyl 2-oxoglutaric acid] |  |  | 97 ± 2% | 98 ± 1% | 100 ± 9% | 124 ± 12% | < 10% | < 10% | < 10% | 95 ± 3% |  |  |  |  |  |  |  |  |  | 
9 | O=C(O)C(=O)C(=O)O [ketomalonic acid] | < 10% | < 10% | 100 ± 2% | 102 ± 4% | 85 ± 12% |  | < 10% | < 10% | < 10% | 79 ± 1% |  |  |  |  |  |  |  |  |  | 
10 | CC(C)CC(=O)C(=O)O [α-ketoisocaproic acid] |  |  | 102 ± 4% | 102 ± 2% | 104 ± 2% | 106 ± 6% | < 10% | < 10% | < 10% | 99 ± 2% |  |  |  |  |  |  |  |  |  | 
11 | CC[C@H](C)C(=O)C(=O)O [α-ketoisoleucine] |  |  | 98 ± 3% | 105 ± 4% | 94 ± 5% | 102 ± 5% | < 10% | < 10% | < 10% | 104 ± 2% |  |  |  |  |  |  |  |  |  | 
